Measured values as given in patent US12144795B2, “Cannabidiol compositions having modified cannabinoid profiles” (priority 2018, dated 2024).

Assay: Stability studies of CBD prepared via Protocol 3 (crude, pure, 2x recrystallized; 5° C., 25° C./60% RH, 40° C./75% RH)
Assay type: physicochemical

C=C(C)[C@@H]1CCC(C)=C[C@H]1c1c(O)cc(CCCCC)cc1O [Pure CBD]
Related substances by HPLC (low level): Δ9-Tetrahydrocannabinol (25° C./60% RH, 0 month): 26 ppm
Water content in % w/w (25° C./60% RH, 0 month): <0.05%
Appearance (25° C./60% RH, 1 month): Off-White Powder
Assay by HPLC (25° C./60% RH, 1 month): 99.7%
Each unspecified impurity: RRT~1.927 (25° C./60% RH, 1 month): RRT~1.927: 0.06%
Related substances by HPLC (low level): Δ8-Tetrahydrocannabinol (25° C./60% RH, 1 month): 25 ppm
Related substances by HPLC (low level): Δ9-Tetrahydrocannabinol (25° C./60% RH, 1 month): 21 ppm
Related substances by HPLC: 4-Monobromo-CBD (25° C./60% RH, 1 month): <0.03% (ND)
Related substances by HPLC: Olivetol (25° C./60% RH, 1 month): <0.03% (ND)
Related substances by HPLC: Sum of impurities, ≥0.05% (25° C./60% RH, 1 month): 0.06%
Related substances by HPLC: Δ8-Tetrahydrocannabinol (25° C./60% RH, 1 month): <0.02% (ND)
Related substances by HPLC: Δ9-Tetrahydrocannabinol (25° C./60% RH, 1 month): <0.02% (ND)
Appearance (25° C./60% RH, 2 months): Off-White Powder
Assay by HPLC (25° C./60% RH, 2 months): 100.3%
Each unspecified impurity: RRT~1.935 (25° C./60% RH, 2 months): RRT~1.935: 0.08%
Related substances by HPLC (low level): Δ8-Tetrahydrocannabinol (25° C./60% RH, 2 months): 21 ppm
Related substances by HPLC (low level): Δ9-Tetrahydrocannabinol (25° C./60% RH, 2 months): 14 ppm
Related substances by HPLC: 4-Monobromo-CBD (25° C./60% RH, 2 months): <0.03% (ND)
Related substances by HPLC: Olivetol (25° C./60% RH, 2 months): <0.03% (ND)
Related substances by HPLC: Sum of impurities, ≥0.05% (25° C./60% RH, 2 months): 0.08%
Related substances by HPLC: Δ8-Tetrahydrocannabinol (25° C./60% RH, 2 months): <0.02% (ND)
Related substances by HPLC: Δ9-Tetrahydrocannabinol (25° C./60% RH, 2 months): <0.02% (ND)
Appearance (25° C./60% RH, 3 months): Off-white
Assay by HPLC (25° C./60% RH, 3 months): 98.5%
Each unspecified impurity: RRT~1.982 (25° C./60% RH, 3 months): RRT~1.982: 0.03%
Related substances by HPLC (low level): Δ8-Tetrahydrocannabinol (25° C./60% RH, 3 months): 36 ppm
Related substances by HPLC (low level): Δ9-Tetrahydrocannabinol (25° C./60% RH, 3 months): <4 ppm (2 ppm)
Related substances by HPLC: 4-Monobromo-CBD (25° C./60% RH, 3 months): <0.03% (ND)
Related substances by HPLC: Olivetol (25° C./60% RH, 3 months): <0.03% (ND)
Related substances by HPLC: Sum of impurities, ≥0.05% (25° C./60% RH, 3 months): <0.05%
Related substances by HPLC: Δ8-Tetrahydrocannabinol (25° C./60% RH, 3 months): <0.02% (ND)
Related substances by HPLC: Δ9-Tetrahydrocannabinol (25° C./60% RH, 3 months): <0.02% (ND)
Related substances by HPLC (low level): Δ9-Tetrahydrocannabinol (40° C./75% RH, 0 month): 26 ppm
Water content in % w/w (40° C./75% RH, 0 month): <0.05%
Appearance (40° C./75% RH, 1 month): Off-White
Assay by HPLC (40° C./75% RH, 1 month): 99.5%
Each unspecified impurity: RRT~1.929 (40° C./75% RH, 1 month): 0.05%
Related substances by HPLC (low level): Δ8-Tetrahydrocannabinol (40° C./75% RH, 1 month): 22 ppm
Related substances by HPLC (low level): Δ9-Tetrahydrocannabinol (40° C./75% RH, 1 month): 14 ppm
Related substances by HPLC: 4-Monobromo-CBD (40° C./75% RH, 1 month): <0.03% (ND)
Related substances by HPLC: Olivetol (40° C./75% RH, 1 month): <0.03% (ND)
Related substances by HPLC: Sum of impurities, ≥0.05% (40° C./75% RH, 1 month): 0.05%
Related substances by HPLC: Δ8-Tetrahydrocannabinol (40° C./75% RH, 1 month): <0.02% (ND)
Related substances by HPLC: Δ9-Tetrahydrocannabinol (40° C./75% RH, 1 month): <0.02% (ND)
Appearance (40° C./75% RH, 2 months): Off-White
Assay by HPLC (40° C./75% RH, 2 months): 100.2%
Each unspecified impurity: RRT~1.932 (40° C./75% RH, 2 months): 0.07%
Related substances by HPLC (low level): Δ8-Tetrahydrocannabinol (40° C./75% RH, 2 months): 20 ppm
Related substances by HPLC (low level): Δ9-Tetrahydrocannabinol (40° C./75% RH, 2 months): 9 ppm
Related substances by HPLC: 4-Monobromo-CBD (40° C./75% RH, 2 months): <0.03% (ND)
Related substances by HPLC: Olivetol (40° C./75% RH, 2 months): <0.03% (ND)
Related substances by HPLC: Sum of impurities, ≥0.05% (40° C./75% RH, 2 months): 0.07%
Related substances by HPLC: Δ8-Tetrahydrocannabinol (40° C./75% RH, 2 months): <0.02% (ND)
Related substances by HPLC: Δ9-Tetrahydrocannabinol (40° C./75% RH, 2 months): <0.02% (ND)
Appearance (40° C./75% RH, 3 months): Off-white
Assay by HPLC (40° C./75% RH, 3 months): 98.8%
Each unspecified impurity: RRT~1.983 (40° C./75% RH, 3 months): 0.03%
Related substances by HPLC (low level): Δ8-Tetrahydrocannabinol (40° C./75% RH, 3 months): 30 ppm
Related substances by HPLC (low level): Δ9-Tetrahydrocannabinol (40° C./75% RH, 3 months): <4 ppm (ND)
Related substances by HPLC: 4-Monobromo-CBD (40° C./75% RH, 3 months): <0.03% (ND)
Related substances by HPLC: Olivetol (40° C./75% RH, 3 months): <0.03% (ND)
Related substances by HPLC: Sum of impurities, ≥0.05% (40° C./75% RH, 3 months): <0.05%
Related substances by HPLC: Δ8-Tetrahydrocannabinol (40° C./75% RH, 3 months): <0.02% (ND)
Related substances by HPLC: Δ9-Tetrahydrocannabinol (40° C./75% RH, 3 months): <0.02% (ND)
Appearance (40° C./75% RH, 5 months): Off-white
Assay by HPLC (40° C./75% RH, 5 months): 99.9%
Each unspecified impurity: RRT~1.918 (40° C./75% RH, 5 months): 0.04%
Related substances by HPLC (low level): Δ8-Tetrahydrocannabinol (40° C./75% RH, 5 months): 36 ppm
Related substances by HPLC (low level): Δ9-Tetrahydrocannabinol (40° C./75% RH, 5 months): 6 ppm
Related substances by HPLC: 4-Monobromo-CBD (40° C./75% RH, 5 months): <0.03% (ND)
Related substances by HPLC: Olivetol (40° C./75% RH, 5 months): <0.03% (ND)
Related substances by HPLC: Sum of impurities, ≥0.05% (40° C./75% RH, 5 months): <0.05%
Related substances by HPLC: Δ8-Tetrahydrocannabinol (40° C./75% RH, 5 months): <0.02% (ND)
Related substances by HPLC: Δ9-Tetrahydrocannabinol (40° C./75% RH, 5 months): <0.02% (ND)
